Source: US10407433B2, “Substituted 4-phenylpiperidines, their preparation and use” (The Trustees of Columbia University in the City of New York, priority 2014, dated 2019)

What was measured:
RBP4 = RBP4 (Homo sapiens (Human), UniProt P02753); experiment: Scintillation proximity RBP4 binding assay (SPA); conditions: 10 nM 3H-Retinol, 50 nM biotinylated RBP4
Protocol: Scintillation Proximity RBP4 Binding Assay
Untagged human RBP4 purified from urine of tubular proteinuria patients was purchased from Fitzgerald Industries International. It was biotinylated using the EZ-Link Sulfo-NHS-LC-Biotinylation kit from Pierce following the manufacturer's recommendations. Binding experiments were performed in 96-well plates (OptiPlate, PerkinElmer) in a final assay volume of 100 μl per well in SPA buffer (1×PBS, pH 7.4, 1 mM EDTA, 0.1% BSA, 0.5% CHAPS). The reaction mix contained 10 nM ^3H-Retinol (48.7 Ci/mmol; PerkinElmer), 0.3 mg/well Streptavidin-PVT beads, 50 nM biotinylated RBP4 and a test compound. Nonspecific binding was determined in the presence of 20 μM of unlabeled retinol.
The reaction mix was assembled in the dark under dim red light. The plates were sealed with clear tape (TopSeal-A: 96-well microplate, PerkinElmer), wrapped in the aluminum foil, and allowed to equilibrate 6 hours at room temperature followed by overnight incubation at +4° C. Radiocounts were measured using a TopCount NXT counter (Packard Instrument Company).

RBP4-TTR interaction = RBP4-TTR interaction (Homo sapiens (Human), UniProt P02753); experiment: TR-FRET (HTRF) assay for retinol-induced RBP4-TTR interaction; assay type: biochemical; conditions: in the presence of 1 μM retinol; read-out: HTRF assay for antagonists of RBP4-TTR interaction: IC50
Source text: TR-FRET Assay for Retinol-Induced RBP4-TTR Interaction
Binding of a desired RBP4 antagonist displaces retinol and induces hindrance for RBP4-TTR interaction resulting in the decreased FRET signal (FIG. 7). Bacterially expressed MBP-RBP4 and untagged TTR were used in this assay. […] Following cell lysis, recombinant RBP4 was purified from the soluble fraction using the ACTA FPLC system (GE Healthcare) equipped with the 5-ml the MBP Trap HP column. Human untagged TTR was purchased from Calbiochem. Untagged TTR was labeled directly with Eu^3+ Cryptate-NHS using the HTRF Cryptate Labeling kit from CisBio following the manufacturer's recommendations. HTRF assay was performed in white low volume 384 well plates (Greiner-Bio) in a final assay volume of 16 μl per well. The reaction buffer contained 10 mM Tris-HCl pH 7.5, 1 mM DTT, 0.05% NP-40, 0.05% Prionex, 6% glycerol, and 400 mM KF. […] Titration of test compounds in this assay was conducted in the presence of 1 μM retinol. All reactions were assembled in the dark under dim red light and incubated overnight at +4° C. wrapped in aluminum foil. TR-FRET signal was measured in the SpectraMax M5e Multimode Plate Reader (Molecular Device). […] The TR-FRET signal was expressed as the ratio of fluorescence intensity: Flu665/Flu620×10,000.

SMILES: COC(=O)N1CCc2[nH]nc(C(=O)N3CCC(c4cccc(F)c4C(F)(F)F)CC3)c2C1 [Compound 68]
- IC50 (RBP4): < 1.37 nM
- IC50 (RBP4-TTR interaction): 36.2 nM
